Experimental data reported in PMC11892739, “Site-specific molecular glues for the 14-3-3/Tau pS214 protein–protein interaction via reversible covalent imine tethering” (RSC Medicinal Chemistry, 2025).

Biological target: T1, 14-3-3/Pin1 complex (Homo sapiens, UniProt P63104)
T1 construct: made in house; host or cells: NiCo21 (DE3) E. coli
Experiment: FA peptide screen, 14-3-3ζ titration to client peptide and compound: Pin1
Format: binding
Settings: 250 μM compound
Description: Since the hub protein 14-3-3 binds to hundreds of phosphoprotein partners, selectivity of PPI stabilization is a major challenge. The interplay of chemical reactivity, and the topology and functionality of the composite binding pocket shaped by 14-3-3 and Tau potentially provide entries towards selective stabilization. […] Here, 14-3-3ζ was titrated to a constant concentration of client peptide (100 nM) and compound (250 μM) to determine the SF250μM values for the particular 14-3-3 PPI. A variety of 14-3-3 binding proteins was represented in this client panel whereby the size and hydrophobicity of the +1 amino acid were varied. […]
chromatography (HisTrap high performance cartridges, Cytiva). […]
0.1% (v/v) Tween20, 0.1% (w/v) BSA). […] Measurements were performed directly after plate preparation, using a Tecan SPARK plate reader at room temperature ( λex: 485±20 nm; λem: 535±25 nm; mirror: automatic; flashes: 30; settle time: 1 ms; gain: optimal; Z -position: calculated from well). […] All data were analyzed using GraphPad Prism (10.0.1) and fitted with a four -parameter logistic model (4PL) to determine binding affinities (dissociation constant, KD). […]
Fluorescence Anisotropy – peptide screen […]

T1 sequence (P63104 whole entry, other chains not shown): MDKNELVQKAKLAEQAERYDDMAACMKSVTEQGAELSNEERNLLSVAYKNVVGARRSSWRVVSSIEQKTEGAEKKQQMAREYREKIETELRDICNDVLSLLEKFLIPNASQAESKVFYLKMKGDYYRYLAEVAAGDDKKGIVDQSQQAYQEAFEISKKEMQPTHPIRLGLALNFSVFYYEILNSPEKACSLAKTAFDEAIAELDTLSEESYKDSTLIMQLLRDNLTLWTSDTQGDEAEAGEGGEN

## CCc1ccc(-c2nccn2-c2ccc(C=O)c(Br)c2)cc1 [Compound 18]
100 nM Pin1 peptide, 14-3-3ζ titrated
  SF250μM for 14-3-3/Pin1 PPI stabilization: 3.9
100 nM peptide, +1 Trp
  stabilization of 14-3-3/Pin1 peptide (in words): no significant stabilization
